For assay [1], the target named is T1, PDK1_1-556 (Homo sapiens, UniProt O15530).
T1 construct: effect of HYG8 on the thermal stability (ΔTm) of PDK1_1-556 (H) and PDK1_50-359 (I); His (N); made in house; host or cells: Sf9 insect cells (baculovirus)
T1 sequence (O15530 1-556): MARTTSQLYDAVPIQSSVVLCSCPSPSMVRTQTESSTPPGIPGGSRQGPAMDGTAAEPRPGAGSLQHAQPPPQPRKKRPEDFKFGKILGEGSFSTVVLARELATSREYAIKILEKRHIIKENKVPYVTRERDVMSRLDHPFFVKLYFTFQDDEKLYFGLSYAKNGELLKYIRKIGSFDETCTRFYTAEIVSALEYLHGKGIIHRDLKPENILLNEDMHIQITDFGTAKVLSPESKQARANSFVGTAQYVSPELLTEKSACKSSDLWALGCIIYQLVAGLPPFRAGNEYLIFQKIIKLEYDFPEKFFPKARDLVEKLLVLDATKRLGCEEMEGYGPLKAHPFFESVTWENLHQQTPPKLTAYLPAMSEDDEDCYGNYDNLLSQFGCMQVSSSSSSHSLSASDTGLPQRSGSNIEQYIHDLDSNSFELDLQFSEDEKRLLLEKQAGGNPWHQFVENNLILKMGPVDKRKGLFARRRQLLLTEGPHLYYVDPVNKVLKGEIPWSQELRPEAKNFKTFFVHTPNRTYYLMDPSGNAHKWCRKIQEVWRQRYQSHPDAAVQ
Description: Differential scanning fluorimetry, thermal stability of PDK1_1-556. Particulars: PDK1 1 μM. The class given is binding. The method, then: The thermal stability of PDK1 was assessed by monitoring the unfolding of PDK1 by the increase in the fluorescence of SYPRO Orange (Invitrogen) using a real-time PCR device (StepOnePlus, Applied Biosystems and BioRad CFX96) following a previously described protocol ([70]). The reactions were performed in a final volume of 10 μl in white 96-well PCR microtiter plates (Greiner) and contained 1 μM PDK1, 10 mM HEPES (pH 7.5), 150 mM NaCl, 1/1000 SYPRO Orange and 1 mM dithiothreitol. For valsartan, the assay buffer was modified to exclude NaCl. PIFtide or compounds (at a final DMSO concentration of 1%) were added to this reaction mixture. The temperature gradient was performed in steps of 0.3 °C in the range from 25 to 70 °C. To calculate the Tm values, data were exported to GraphPad Prism and curves fitted to a Boltzmann sigmoidal equation with an acceptable confidence interval of 95%. Statistical analysis was performed with Infostat software (http://www.infostat.com.ar) and GraphPad Prism by first verifying a normal distribution of pooled residuals (Shapiro-Wilks test) and homogeneity of variance (F test), and then performing a one-way ANOVA followed by the post hoc comparisons test indicated in each figure legend.
In general terms: Differential scanning fluorimetry follows unfolding on heating by fluorescence.

In assay [2] the target is T2, PDK1 (Homo sapiens, UniProt O15530).
T2 sequence (O15530 1-556): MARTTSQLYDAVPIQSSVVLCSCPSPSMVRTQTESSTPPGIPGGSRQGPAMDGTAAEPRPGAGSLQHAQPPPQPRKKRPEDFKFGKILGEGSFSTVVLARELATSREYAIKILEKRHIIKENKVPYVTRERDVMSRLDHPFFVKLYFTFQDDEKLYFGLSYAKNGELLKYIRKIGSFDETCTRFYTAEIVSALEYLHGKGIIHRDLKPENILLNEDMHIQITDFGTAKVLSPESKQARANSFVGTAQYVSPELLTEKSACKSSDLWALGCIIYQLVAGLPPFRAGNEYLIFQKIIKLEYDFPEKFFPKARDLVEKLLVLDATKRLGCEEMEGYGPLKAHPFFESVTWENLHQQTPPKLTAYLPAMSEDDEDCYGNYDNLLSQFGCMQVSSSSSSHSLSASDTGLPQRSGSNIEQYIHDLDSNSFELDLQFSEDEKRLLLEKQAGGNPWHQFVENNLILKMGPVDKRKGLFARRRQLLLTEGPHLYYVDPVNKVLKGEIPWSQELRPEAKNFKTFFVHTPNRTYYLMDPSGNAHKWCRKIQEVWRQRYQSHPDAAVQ
The assay is described as follows: Thermo Fisher "PDK1 Direct" assay (peptide Ser/Thr 07, FRET readout). The class given is biochemical.

Assay [3] deals with T3, His-PDK1_1-556 and GST-PDK1_360-556 (Homo sapiens, UniProt O15530).
T3 construct: made in house; host or cells: Sf9 insect cells (His-PDK1_1-556); HEK293 cells (GST-PDK1_360-556)
T3 sequence (O15530 1-556): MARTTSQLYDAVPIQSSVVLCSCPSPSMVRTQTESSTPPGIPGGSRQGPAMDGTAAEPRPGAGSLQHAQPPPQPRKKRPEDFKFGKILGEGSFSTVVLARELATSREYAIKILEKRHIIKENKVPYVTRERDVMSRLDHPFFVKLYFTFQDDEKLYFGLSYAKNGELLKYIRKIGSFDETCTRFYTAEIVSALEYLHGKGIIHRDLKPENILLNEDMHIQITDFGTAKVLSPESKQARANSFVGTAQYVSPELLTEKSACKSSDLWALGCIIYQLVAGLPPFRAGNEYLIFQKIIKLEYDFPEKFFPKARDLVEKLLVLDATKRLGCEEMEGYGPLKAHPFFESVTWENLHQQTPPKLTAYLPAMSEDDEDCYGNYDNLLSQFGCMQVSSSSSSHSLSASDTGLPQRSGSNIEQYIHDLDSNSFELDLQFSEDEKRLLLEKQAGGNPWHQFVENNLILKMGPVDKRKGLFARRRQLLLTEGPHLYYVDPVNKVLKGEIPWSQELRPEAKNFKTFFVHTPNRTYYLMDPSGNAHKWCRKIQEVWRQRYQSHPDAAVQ
The assay is described as follows: AlphaScreen PDK1 dimerization assay His-PDK1_1-556 / GST-PDK1_360-556. The class given is binding. The method, then:
(§1) The AlphaScreen® assay was performed following the general guidelines from the manufacturer (Perkin Elmer) ([29]). In short, the assay was performed in a final volume of 25 μl in white 384-well microtiter plates (Greiner) in a standard buffer containing 50 mM Tris-HCl (pH 7.4), 100 mM NaCl, 2 mM DTT, 0.01% (v/v) Tween-20 and 0.1% (w/v) BSA, with the addition of 5 μl of beads (anti-GST coated acceptor beads and streptavidin-coated donor beads; nickel chelate-coated acceptor beads and streptavidin-coated donor beads; or nickel chelate-coated acceptor beads and GSH-coated donor beads, 20 μg/ml final concentrations for each bead type). AlphaScreen assays for His-tagged proteins and GST-fusion proteins were performed using nickel chelate-coated acceptor beads and GSH-coated donor beads; alphascreen assays for His-tagged proteins and biotinylated molecules were performed using nickel chelate-coated acceptor beads and streptavidin-coated donor beads; alphascreen assays for GST-fusion proteins and biotinylated molecules were performed using anti-GST coated acceptor beads and streptavidin-coated donor beads (Perkin Elmer).
(§2) The conditions for each AlphaScreen assay were identified in cross-titration experiments for each interaction to choose the ideal pair of concentrations within the linear range of the interactions. […] His-PDK1 and GST-fusion protein in the presence or absence of the different compounds were incubated in the dark for 60 min at room temperature and the emission of light from the acceptor beads was measured in an EnVision reader (Perkin Elmer) or Spark plate reader (Tecan). […]
(In general: Alpha assays give light when donor and acceptor beads are brought close together.)

Assay [4] relates to PDK1. Set-up: method as in PMID 20051961. Particulars: read-out: IC50, in vitro inhibitor of PDK1; cited from earlier work.
Assay [5] has as its target T4, GST-PDK1_1-556 (Homo sapiens, UniProt O15530).
T4 construct: made in house; host or cells: HEK293 cells (transient transfection of pEBG2T); peptide synthesized by Pepscan
T4 sequence (O15530 1-556): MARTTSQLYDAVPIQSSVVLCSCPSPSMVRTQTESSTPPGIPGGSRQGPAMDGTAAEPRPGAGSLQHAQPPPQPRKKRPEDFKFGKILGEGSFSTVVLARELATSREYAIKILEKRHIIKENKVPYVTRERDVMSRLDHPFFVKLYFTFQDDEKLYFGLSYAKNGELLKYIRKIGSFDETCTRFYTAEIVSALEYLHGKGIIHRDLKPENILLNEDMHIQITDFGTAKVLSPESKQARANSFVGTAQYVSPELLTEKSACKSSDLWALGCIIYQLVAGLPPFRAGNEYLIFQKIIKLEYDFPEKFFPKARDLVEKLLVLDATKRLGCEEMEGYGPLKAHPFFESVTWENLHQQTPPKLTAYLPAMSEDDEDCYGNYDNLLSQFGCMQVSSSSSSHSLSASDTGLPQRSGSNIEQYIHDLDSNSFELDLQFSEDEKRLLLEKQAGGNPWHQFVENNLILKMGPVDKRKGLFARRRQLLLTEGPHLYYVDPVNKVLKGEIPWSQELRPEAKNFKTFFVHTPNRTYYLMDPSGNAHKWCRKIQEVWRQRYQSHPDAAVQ
Description: AlphaScreen biotin-PIP3 / GST-PDK1_1-556 displacement. The class given is binding. Particulars: PIP3 20 nM, GST-PDK1 3 nM. As for the experimental part: as §1
The conditions for each AlphaScreen assay were identified in cross-titration experiments for each interaction to choose the ideal pair of concentrations within the linear range of the interactions. As required, the standard conditions were modified to use less material, to increase binding of the interacting molecules, to lower background signal, and so on. His-PDK1 and GST-fusion protein in the presence or absence of the different compounds were incubated in the dark for 60 min at room temperature and the emission of light from the acceptor beads was measured in an EnVision reader (Perkin Elmer) or Spark plate reader (Tecan). AlphaScreen assays were performed at least twice, although most experiments were performed multiple times by different researchers with different batches of purified proteins with similar results.
(§3) Biotin-PIP3 interactions with GST-PDK1_1-556 or GST-PDK1_360-556 were assessed in the standard buffer. […]

Assay [6] concerns the target T5, GST-PDK1_360-556 (Homo sapiens, UniProt O15530).
T5 construct: GST-PDK1_360-556 (GST-PDK1-Linker-PH) was cloned into the BamHI-KpnI sites in pEBG2T plasmid; made in house; host or cells: HEK293 cells (transient transfection of pEBG2T)
T5 sequence (O15530 360-556): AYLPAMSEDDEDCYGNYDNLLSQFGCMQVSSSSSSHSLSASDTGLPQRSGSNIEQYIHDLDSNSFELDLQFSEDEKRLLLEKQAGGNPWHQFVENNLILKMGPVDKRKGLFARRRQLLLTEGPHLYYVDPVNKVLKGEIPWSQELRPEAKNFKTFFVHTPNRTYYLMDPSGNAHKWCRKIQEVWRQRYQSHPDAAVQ
Description: AlphaScreen biotin-PIP3 / GST-PDK1_360-556 (linker-PH domain) displacement. Type of assay: binding. Conditions: PIP3 20 nM, GST-PDK1 3 nM. As for the experimental part:
The AlphaScreen® assay was performed following the general guidelines from the manufacturer (Perkin Elmer) ([29]). In short, the assay was performed in a final volume of 25 μl in white 384-well microtiter plates (Greiner) in a standard buffer containing 50 mM Tris-HCl (pH 7.4), 100 mM NaCl, 2 mM DTT, 0.01% (v/v) Tween-20 and 0.1% (w/v) BSA, with the addition of 5 μl of beads (anti-GST coated acceptor beads and streptavidin-coated donor beads; nickel chelate-coated acceptor beads and streptavidin-coated donor beads; or nickel chelate-coated acceptor beads and GSH-coated donor beads, 20 μg/ml final concentrations for each bead type). […]
as §2, §3

The target of assay [7] is T4, GST-PDK1_1-556. Description: AlphaScreen GST-PDK1_1-556 / biotin-PIFtide interaction. The class given is binding. The method, then: as §1
The interaction between GST-PDK1_1-556 and biotin-PIFtide was performed as described previously ([29], [32]) in the standard buffer, but the bead concentration was lowered to 15 μg/ml.

Where [8] appears, read: replicate point 1, read-out: % Inhibition Point 1.
The mark [9] stands for this setting: replicate point 2, read-out: % Inhibition Point 2.
[10] abbreviates: single point, N=2, read-out: Inhibition at 1 μM (%).
Where [11] appears, read: absence of PIFtide, read-out: IC50 (nM), displacement of His-PDK1_1-556 interaction with GST-PDK1_360-556.
Where [12] appears, read: with PIFtide, read-out: IC50 (nM), displacement of His-PDK1_1-556 interaction with GST-PDK1_360-556 with PIFtide.

Consider three compounds from PMC7614687, “Modulation of the substrate specificity of the kinase PDK1 by distinct conformations of the full-length protein*” (Science signaling, 2023).

Structures are written as SMILES. Where two headings read alike, the source gives them in different places.

As a reminder, the inhibition is the percentage by which the read-out fell short of the control. The IC50 is the point on the concentration scale where inhibition reaches its midpoint. Take `CC(=O)O[C@H]1[C@@H](OP(=O)(O)O)[C@H](OP(=O)(O)O)[C@@H](OP(=O)(O)O)[C@H](OP(=O)(O)O)[C@H]1OP(=O)(O)O` [HYG6, 2-O-acetyl-IP5]: the figures for the “Tm (°C), temperature stabilization of PDK1_1-556” value in assay [1] (compound 1 µM) and in assay [1] (compound 20 µM) were 7.8 °C and 9.9 °C, respectively. For the same compound, the results for the inhibition at 1 µM in assay [2] (setting [8]), in assay [2] (setting [9]) and in assay [2] (setting [10]) were 53%, 64% and 59%, respectively. For the same compound, the “Hill slope, PDK1 direct” value in assay [2] (10-point titration) turned out to be 1.11. Moreover, the IC50 in assay [2] (10-point titration) is 449 nM; in assay [3] (setting [11]) it was 27 nM; in assay [3] (setting [12]), 17.9 nM. For the same compound, in assay [2] (PDK1 Direct assay IC50 comparison), the “times less potent inhibitors than HYG7, HYG8 and HYG14” value lay within 15 to 36 times.
`O=P(O)(O)OC1C(OCc2ccccc2)C(OP(=O)(O)O)C(OP(=O)(O)O)C(OP(=O)(O)O)C1OP(=O)(O)O` (stereo not drawn) [2-O-benzyl-IP5]: in assay [4], the IC50 is 26 nM.
As to `NCCO[C@H]1[C@@H](OP(=O)(O)O)[C@H](OP(=O)(O)O)[C@@H](OP(=O)(O)O)[C@H](OP(=O)(O)O)[C@H]1OP(=O)(O)O` [AMR1474, 2-O-(2-aminoethyl)-IP5], the results for the “Tm (°C), temperature stabilization of PDK1_1-556” value in assay [1] (compound 1 µM) and in assay [1] (compound 20 µM) were 2.9 °C and 6.0 °C, respectively. The inhibition at 1 µM in assay [2] (setting [8]) was 9%; in assay [2] (setting [9]) it was 11%; in assay [2] (setting [10]), at most 10%. Besides, the “displacement of PIP3 from GST-PDK1_1-556” value in assay [5] was “lacked or showed reduced ability to displace”. For the same compound, the “displacement of PIP3 from GST-PDK1_360-556” value in assay [6] is given as “lacked or showed reduced ability to displace”. Moreover, the IC50 in assay [3] (setting [11]) amounted to 458 nM; in assay [3] (setting [12]) it was 159 nM. In addition, in assay [7], the “effect on PDK1-PIFtide interaction” value is reported as “virtually no effect”.
